“And” between values parts separate entries of the source, which are not always exact repeats. Equal values may be shown once. “Also recorded” adds a separate entry of the source. Peptide text beside a SMILES is read from it. * marks the point of attachment. Cbz = O=C(OCc1ccccc1)*

Common to all, as to format: cell-based, human
In test [1] the test system is TDP-43-BiFC cells. Briefly: BiFC fluorescence analysis of TDP-43 oligomer formation in TDP-43-BiFC cells (384-well, Operetta). As to conditions: 48 hours at 37° C.; for change in BiFC fluorescence of TDP-43 (in words): MG132 5 μM, α-synuclein 5 μg/ml, tauK18^P301L 5 μg/ml; for increase of BiFC fluorescence in the cells compared to untreated cells: forskolin 30 μM, scriptaid 3 μM, thapsigargin 1 μM, ionomycin 1 μM, Cu^2+ 1 μM, Zn^2+ 30 μM. The procedure:
In order to develop a TDP-43-BiFC cell line, the TDP-43-VN173 and TDP-43-VC155 constructs shown in FIG. 2 were co-transfected into HEK293 BiFC cells. For establishment of a stable cell line, the transfected cells were selected by culture with growth medium containing 100 μg/mL geneticin (G418; Sigma). In addition, the selected cells were sorted using FACSAria (BD Bioscience) into cells showing fluorescence. The sorted TDP-43-BiFC cells were kept in DMEM medium containing 10% FBS, 100 units/mL penicillin, 100 μg/mL streptomycin and 100 μg/mL G418 in a humidified atmosphere at 37° C. under 5% CO2.
The TDP-43-BiFC cells prepared in Example 1 above were treated with a compound that induces PTMs of protein, a compound that ER stress in cells, amyloid protein, metal ions, or the like, and changes in BiFC fluorescence in the cells were examined. Specifically, for fluorescence analysis, the TDP-43-BiFC cells were grown in a 384-well plate and treated with each of forskolin (30 μM), scriptaid (3 μM), thapsigargin (1 μM), ionomycin (1 μM), MG132 (5 μM), α-synuclein (5 μg/ml), tauK18^P301L (5 μg/ml), Cu^2+ (1 μM) and Zn^2+ (30 μM), followed by culture at 37° C. for 48 hours. Fluorescence images were obtained using Operetta® (PerkinElmer), and the fluorescence intensity in the nucleus and the cytoplasmic fluorescence intensity were analyzed using Harmony3.1 software (PerkinElmer).

Test [2] concerns TDP-43-BiFC cells. Briefly: Intracellular distribution of BiFC fluorescence, high-magnification imaging. As to conditions: treated as in Example 2 (scriptaid 3 μM, 48 hours); 1000× magnification. An excerpt: Next, the pattern of intracellular distribution by an increase in TDP-43 oligomer formation was examined. Specifically, TDP-43 formation was induced in the same manner as Example 2 above, and then the whole plate was automatically imaged using Operetta®, and high-resolution images were obtained using a Nikon Eclipse inverted microscope (Ti, Nikon) at 1000× magnification.

Test [3] concerns TDP-43-BiFC cells. Briefly: Isolation of TDP-43 oligomer with GFP-trap beads and immunoblot with anti-TDP-43 antibody. As to conditions: 24 hours at 37° C., forskolin 30 μM, scriptaid 1 μM, thapsigargin 0.5 μM, ionomycin 1 μM, SDS-PAGE, immunoblot. The procedure:
Lysates of the TDP-43-BiFC cells treated with each of the four drugs in Example 3 and a lysate of untreated cells were prepared and TDP-43 oligomers were isolated therefrom. Specifically, TDP-43-BiFC cells were grown in a 6-well plate, treated with each of forskolin (30 μM), scriptaid (1 μM), thapsigargin (0.5 μM) and ionomycin (1 μM), and cultured at 37° C. for 24 hours, and then lysates of the cells were prepared. GFP-trap beads shown in FIG. 5a were added to the lysates which were then incubated at 4° C. for 16 hours, and the oligomerized TDP-43 protein was isolated. The isolated protein was separated by SDS-PAGE, and immunoblot analysis was performed using anti-TDP-43 antibody.
In general terms: In western blotting, separated proteins are transferred to a membrane and probed.

In the case of tauK18^P301L, the “change in BiFC fluorescence of TDP-43 (in words)” value (“change in BiFC fluorescence” for short) in the test with TDP-43-BiFC cells [1] was “did not increase”.

`C[C@H](CCC(=O)O)C[C@H](C)C[C@H](C)C(=O)/C=C(\O)[C@H](C)C[C@H](C)C/C=C/[C@@H](C)[C@@H](O)[C@@H](C)[C@@H](O)C[C@@H]1CC[C@@](C)([C@H]2CC[C@@](C)([C@@H](C)O)O2)O1` [ionomycin]: the “increase of BiFC fluorescence in the cells compared to untreated cells” value (from here on “increase of BiFC fluorescence”) in the test with TDP-43-BiFC cells [1] was found to be 7 fold.

Regarding α-synuclein, the “change in BiFC fluorescence” value with TDP-43-BiFC cells [1] was “did not increase”.

As to `O=C(CCCCCN1C(=O)c2cccc3cccc(c23)C1=O)NO` [scriptaid], the “increase of BiFC fluorescence” value in the test on TDP-43-BiFC cells [1] is 36 fold and 48 fold. Besides, in the test on TDP-43-BiFC cells [2], the “distribution of BiFC fluorescence in nucleus and cytoplasm” value is “greatly increased the fluorescence not only in the nucleus but also in the cytoplasm; also recorded: significantly increased not only in the nucleus but also in the cytoplasm”. Moreover, in the test on TDP-43-BiFC cells [3], the “amount of detected oligomerized TDP-43 protein compared to untreated cells” value was “largest amount”.

Turning to `[Zn+2]` [Zn^2+], the “increase of BiFC fluorescence” value in the test on TDP-43-BiFC cells [1] is listed as “about 2 fold”.

Consider `[Cu+2]` [Cu^2+], for which, in the test on TDP-43-BiFC cells [1], the “increase of BiFC fluorescence” value is on record as “about 2 fold”.

Consider `CC(C)C[C@@H](C=O)NC(=O)[C@H](CC(C)C)NC(=O)[C@H](CC(C)C)NC(=O)OCc1ccccc1` [MG132] (Cbz-Leu-Leu-Leu-aldehyde), for which the “change in BiFC fluorescence” value in the test on TDP-43-BiFC cells [1] was “no change”.

`C/C=C(/C)C(=O)O[C@H]1C(C)=C2[C@H]([C@@H]1OC(=O)CCCCCCC)[C@@](C)(OC(C)=O)C[C@H](OC(=O)CCC)[C@@]1(O)[C@H]2OC(=O)[C@@]1(C)O` [thapsigargin]: the “increase of BiFC fluorescence” value with TDP-43-BiFC cells [1] is 31 fold.

For the origin of these results see patent US11421237B2, “Pair of amino acid sequences for monitoring formation of TDP-43 oligomer in living cells via bimolecular fluorescence complementation” (KOREA INSTITUTE OF SCIENCE AND TECHNOLOGY, priority 2019, dated 2022).
